Key:
Assay in all cases: relative viability (nuclei count vs DMSO), 5 days (fraction); higher = more cells survive
[1] = compound: CC1=CC(=CC=C1)NC2=NC(=CS2)C3=CC=NC=C3 + NC(=O)Nc1cc(-c2cccc(F)c2)sc1C(=O)N[C@H]1CCCNC1 [AZD7762] (partner 0.2 µM)
Method in brief: (§1)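 Nuclei were stained with Hoechst during a one-step fixation (final 0.05% Triton X-100, 1% formaldehyde, 1 ug/ml Hoechst) carried out 5 days after dosing, then counted on 4× images. The cells, lung cancer lines in 1536-well plates, had been dosed by pin tool the day after seeding with one drug alone or a fixed anchor-drug dose plus five library-drug doses (not always all listed) in √10 steps. Relative viability is the nuclei count in treated wells divided by that in vehicle wells, and each value is the median of duplicate plates.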

[2] = compound: CC1=CC(=CC=C1)NC2=NC(=CS2)C3=CC=NC=C3 + CS(=O)(=O)N1CCN(Cc2cc3nc(-c4cccc5[nH]ncc45)nc(N4CCOCC4)c3s2)CC1 [Pictilisib] (partner 1 µM)
Method in brief: as §1

Masitinib + Phenformin = compound: Cc1ccc(NC(=O)c2ccc(CN3CCN(C)CC3)cc2)cc1Nc1nc(-c2cccnc2)cs1 [Masitinib] + N=C(N)NC(=N)NCCc1ccccc1 [Phenformin] (partner 250 µM)
Method in brief: as §1

[3] = compound: CC1=CC(=CC=C1)NC2=NC(=CS2)C3=CC=NC=C3 + CC(=O)Nc1cccc(-n2c(=O)n(C3CC3)c(=O)c3c(Nc4ccc(I)cc4F)n(C)c(=O)c(C)c32)c1 [Trametinib] (partner 0.02 µM)
Method in brief: as §1

| Cell Line | relative viability ([1]; first compound 0.08 µM) | relative viability ([1]; first compound 0.253 µM) | relative viability ([1]; first compound 0.8 µM) | relative viability ([1]; first compound 2.53 µM) | relative viability ([1]; first compound 8 µM) | relative viability ([2]; first compound 0.08 µM) | relative viability ([2]; first compound 0.253 µM) | relative viability ([2]; first compound 0.8 µM) | relative viability ([2]; first compound 2.53 µM) | relative viability ([2]; first compound 8 µM) | relative viability (Masitinib + Phenformin; first compound 0.01 µM) | relative viability (Masitinib + Phenformin; first compound 0.03162 µM) | relative viability (Masitinib + Phenformin; first compound 0.1 µM) | relative viability (Masitinib + Phenformin; first compound 0.3162 µM) | relative viability (Masitinib + Phenformin; first compound 1 µM) | relative viability ([3]; first compound 0.08 µM) | relative viability ([3]; first compound 0.253 µM) | relative viability ([3]; first compound 0.8 µM) | relative viability ([3]; first compound 2.53 µM) | relative viability ([3]; first compound 8 µM) |
| --- | --- | --- | --- | --- | --- | --- | --- | --- | --- | --- | --- | --- | --- | --- | --- | --- | --- | --- | --- | --- |
| NCI-H1993 | 0.688 | 0.706 | 0.641 | 0.682 | 0.749 | 0.804 | 0.907 | 0.788 | 0.822 | 0.779 | 0.5 | 0.469 | 0.603 | 0.523 | 0.451 | 0.514 | 0.517 | 0.596 | 0.348 | 0.461 |
| CAL-12T | 0.527 | 0.63 | 0.604 | 0.516 | 0.561 | 0.286 | – | 0.557 | 0.261 | 0.388 | 0.525 | 0.637 | 0.594 | 0.553 | 0.509 | 0.282 | 0.325 | 0.342 | 0.236 | 0.305 |
| NCI-H1623 | – | – | – | – | – | – | – | – | – | – | 0.509 | 0.494 | 0.564 | 0.52 | 0.533 | – | – | – | – | – |
| HCC-44 | 0.849 | 0.853 | 0.946 | 0.876 | 0.88 | 0.423 | 0.429 | 0.462 | 0.485 | 0.486 | 0.236 | 0.188 | 0.213 | 0.323 | 0.185 | 0.939 | 0.847 | 0.701 | 0.687 | 0.695 |
| EKVX | 0.63 | 0.703 | – | 0.764 | 0.524 | 0.374 | 0.391 | 0.344 | 0.32 | 0.346 | – | 0.213 | 0.235 | 0.214 | 0.199 | 0.29 | 0.308 | – | 0.313 | 0.319 |
| NCI-H1666 | 0.766 | 0.715 | 0.607 | 0.548 | 0.68 | 0.326 | 0.358 | 0.351 | 0.329 | 0.3 | – | 0.527 | 0.637 | 0.487 | 0.56 | 0.578 | 0.728 | 0.684 | 0.523 | 0.6 |
| NCI-H2170 | 0.776 | 0.829 | 0.706 | 0.749 | 0.521 | 0.296 | 0.287 | 0.301 | 0.271 | 0.276 | 0.354 | 0.396 | 0.386 | 0.386 | 0.378 | 0.945 | 0.935 | 0.833 | 0.86 | 0.668 |
| NCI-H1734 | 0.559 | 0.554 | 0.528 | 0.647 | 0.558 | 0.479 | 0.499 | 0.494 | 0.588 | 0.43 | 0.423 | 0.423 | 0.493 | 0.379 | 0.339 | 0.679 | 0.712 | 0.677 | 0.681 | 0.614 |
| Calu-6 | – | – | – | – | – | 0.796 | 0.718 | 0.659 | 0.815 | 0.803 | – | – | – | – | – | – | – | – | – | – |
| EBC-1 | – | – | – | – | – | 0.187 | 0.216 | 0.236 | 0.303 | 0.211 | – | – | – | – | – | – | – | – | – | – |
| A-427 | 0.646 | 0.795 | 0.815 | 0.81 | 0.646 | 0.633 | 0.71 | 0.692 | – | 0.655 | – | 0.292 | – | 0.309 | 0.235 | 0.572 | 0.716 | 0.714 | 0.719 | 0.624 |
| NCI-H2405 | 0.675 | 0.716 | 0.667 | – | 0.664 | 0.315 | 0.433 | 0.332 | 0.523 | 0.342 | 0.379 | 0.366 | 0.399 | 0.459 | 0.247 | 0.566 | 0.571 | 0.591 | – | 0.552 |
| NCI-H1437 | 1.07 | 1.11 | 1.1 | 1.12 | 1.11 | 0.53 | 0.613 | 0.689 | 0.294 | 0.285 | 0.249 | 0.297 | 0.25 | 0.294 | 0.329 | 0.439 | 0.48 | 0.434 | 0.274 | 0.313 |
| SK-MES-1 | – | – | – | – | – | 0.275 | 0.276 | 0.341 | 0.358 | 0.346 | 0.657 | 0.691 | 0.686 | 0.659 | 0.512 | 0.477 | 0.5 | 0.457 | 0.571 | 0.423 |
| RERF-LC-KJ | 1.09 | 0.691 | 0.775 | 0.222 | 0.911 | 0.509 | 0.49 | 0.541 | 0.472 | 0.497 | 0.387 | 0.451 | 0.438 | 0.447 | 0.35 | 0.953 | 0.734 | 0.735 | 0.703 | 0.645 |
| NCI-H23 | 0.283 | 0.276 | 0.213 | 0.244 | 0.223 | 0.33 | 0.482 | 0.555 | 0.434 | 0.462 | 0.846 | 0.734 | 0.881 | 0.781 | 0.748 | 0.371 | 0.199 | 0.424 | 0.388 | 0.419 |
| HOP-62 | 0.629 | 0.598 | 0.619 | 0.861 | 0.578 | 0.581 | 0.758 | 1.09 | 0.668 | 0.903 | 0.55 | 0.744 | 0.668 | 0.827 | 0.691 | 0.371 | 0.324 | 0.345 | 0.328 | 0.266 |
| HARA | 0.306 | 0.466 | 0.317 | 0.356 | 0.273 | 0.343 | 0.354 | 0.367 | 0.21 | 0.374 | – | 0.417 | 0.399 | 0.398 | 0.424 | 0.561 | 0.742 | 0.734 | 0.447 | 0.629 |
| PC-14 | 0.254 | 0.28 | 0.383 | 0.247 | 0.316 | 0.719 | 0.666 | 0.634 | 0.752 | 0.598 | 0.458 | 0.633 | 0.572 | 0.507 | 0.506 | 0.591 | 0.747 | 0.629 | 0.647 | 0.36 |

From the supplement of paper PMC10307832
